Structures can show the parent of a compound that is named as a salt. Where two headings read alike, the source gives them in different places.
What was measured:
c-Kit [1] = biological target: T1, c-Kit (Homo sapiens (Human), UniProt P10721); assay: Mobility Shift Assay of c-Kit kinase enzyme activity; type: biochemical; conditions: ATP at Km 87 μM, 40 minutes at 28° C., pre-activated c-Kit
Protocol: (§1) The activity of the compounds of this invention on Abl, c-Kit and PDGFR kinases was tested by Mobility Shift Assay (MSA).
(§2) • 1. Preparation of kinase buffer and stop buffer;
(§3) The compound was dissolved in DMSO and then serial dilutions were prepared; • 3. Preparation of kinase solution: Kinase solution was obtained by dissolving kinases in the kinase buffer mentioned above. With regard to c-Kit kinase, the pre-activation treatments should be carried out as follows. 700 nM c-Kit, 2 mM ATP, 4 mM DTT and 10 mM MgCl2 were dissolved in kinase buffer. After being incubated at 28° C. for 15 minutes, the solution was added to the kinase buffer; • 4. Preparation of polypeptide solution: Polypeptide FAM and ATP were dissolved in kinase buffer; • 5. The kinase solution was transferred to a culture plate and incubated for 10 minutes at room temperature. […] The polypeptide solution was transferred to the culture plate. […] The final concentrations of MgCl2 in all circumstances were all 10 mM; • 7. The mixture in each well of the plate was incubated at 28° C., for 1 hour for Abl, 40 minutes for c-Kit and 5 hours for PDGFR. The stop buffer was then added to terminate the reaction; • 8. Data were collected in Caliper and then input into the software XLfit to calculate IC50 values.

PDGFR (Homo sapiens) = assay: Mobility Shift Assay of PDGFR kinase enzyme activity; type: biochemical; conditions: ATP at Km 38 μM, 5 hours at 28° C.
Chain of PDGFR (Homo sapiens) (P09619 33-1106 limits assumed): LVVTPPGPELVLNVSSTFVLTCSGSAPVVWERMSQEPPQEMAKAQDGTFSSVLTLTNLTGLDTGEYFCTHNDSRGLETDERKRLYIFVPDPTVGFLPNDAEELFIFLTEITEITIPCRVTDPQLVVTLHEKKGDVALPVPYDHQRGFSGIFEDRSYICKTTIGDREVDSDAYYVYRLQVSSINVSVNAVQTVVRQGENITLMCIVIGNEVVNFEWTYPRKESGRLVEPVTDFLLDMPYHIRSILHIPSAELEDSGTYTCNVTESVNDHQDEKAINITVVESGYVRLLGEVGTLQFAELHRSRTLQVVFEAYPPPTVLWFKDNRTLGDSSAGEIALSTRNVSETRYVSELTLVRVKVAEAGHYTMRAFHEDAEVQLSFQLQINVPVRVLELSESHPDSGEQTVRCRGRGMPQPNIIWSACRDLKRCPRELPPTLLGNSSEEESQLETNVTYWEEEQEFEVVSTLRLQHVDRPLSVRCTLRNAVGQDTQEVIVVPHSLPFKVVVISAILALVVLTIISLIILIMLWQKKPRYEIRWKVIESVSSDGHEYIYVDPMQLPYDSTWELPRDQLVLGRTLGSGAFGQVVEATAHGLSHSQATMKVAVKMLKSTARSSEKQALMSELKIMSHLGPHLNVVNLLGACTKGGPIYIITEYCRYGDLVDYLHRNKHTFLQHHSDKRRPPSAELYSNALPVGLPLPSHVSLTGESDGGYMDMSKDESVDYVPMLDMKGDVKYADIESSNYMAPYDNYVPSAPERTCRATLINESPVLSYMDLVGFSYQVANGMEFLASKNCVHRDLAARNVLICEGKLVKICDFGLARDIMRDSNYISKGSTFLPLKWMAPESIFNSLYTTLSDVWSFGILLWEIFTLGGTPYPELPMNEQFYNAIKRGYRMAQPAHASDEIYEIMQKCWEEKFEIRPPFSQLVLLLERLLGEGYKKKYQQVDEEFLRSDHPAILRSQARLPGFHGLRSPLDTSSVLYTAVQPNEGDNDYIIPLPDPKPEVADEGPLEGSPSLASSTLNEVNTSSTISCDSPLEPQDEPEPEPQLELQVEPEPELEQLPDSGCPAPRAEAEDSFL
Protocol: as §1, §2, §3

c-Kit (D816V) = c-Kit (D816V) (Homo sapiens (Human), UniProt P10721, D816V); assay: 33P-ATP kinase assay, c-Kit (D816V); type: biochemical; conditions: 33P-ATP assay; ATP concentration 30 μM
Chain of c-Kit (D816V) (P10721 26-976 D816V): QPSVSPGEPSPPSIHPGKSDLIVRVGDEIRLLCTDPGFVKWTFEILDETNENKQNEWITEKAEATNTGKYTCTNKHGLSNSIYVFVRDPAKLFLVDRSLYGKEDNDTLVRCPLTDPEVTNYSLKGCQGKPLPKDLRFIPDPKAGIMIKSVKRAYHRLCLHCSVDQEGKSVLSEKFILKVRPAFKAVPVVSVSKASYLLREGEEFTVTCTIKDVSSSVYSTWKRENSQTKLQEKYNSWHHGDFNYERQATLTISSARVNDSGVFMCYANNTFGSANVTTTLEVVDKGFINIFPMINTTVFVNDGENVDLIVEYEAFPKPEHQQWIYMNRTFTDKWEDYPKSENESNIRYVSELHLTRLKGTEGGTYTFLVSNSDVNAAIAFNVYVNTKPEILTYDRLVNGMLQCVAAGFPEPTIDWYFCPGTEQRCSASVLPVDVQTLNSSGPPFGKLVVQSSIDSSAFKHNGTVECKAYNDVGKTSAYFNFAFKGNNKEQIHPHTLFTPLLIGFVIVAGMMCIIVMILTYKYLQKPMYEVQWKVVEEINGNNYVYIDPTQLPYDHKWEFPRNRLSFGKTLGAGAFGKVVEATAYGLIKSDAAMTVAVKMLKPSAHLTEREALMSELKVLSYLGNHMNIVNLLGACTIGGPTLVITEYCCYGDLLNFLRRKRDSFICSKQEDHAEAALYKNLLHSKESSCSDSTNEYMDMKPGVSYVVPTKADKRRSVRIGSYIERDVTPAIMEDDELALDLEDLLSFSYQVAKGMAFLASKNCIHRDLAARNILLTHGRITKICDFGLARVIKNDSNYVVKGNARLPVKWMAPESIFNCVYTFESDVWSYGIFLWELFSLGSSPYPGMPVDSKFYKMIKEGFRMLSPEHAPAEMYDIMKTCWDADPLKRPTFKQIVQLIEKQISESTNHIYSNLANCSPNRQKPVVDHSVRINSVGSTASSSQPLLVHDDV
Protocol: (§4) Inhibitory activity of the compounds of this invention on Abl, c-Kit and PDGFR mutant kinases was tested by the phosphor isotope-labelled ATP (^33P-ATP) assay. • 1. Substrate solution was prepared using newly-prepared reaction buffer. The buffer includes: 20 mM HEPES, pH 7.5, 10 mM MgCl2, 1 mM EGTA, 0.02% Brij 35, 0.02 mg/ml BSA, 0.1 mM Na3VO4, 2 mM DTT, 1% DMSO. […] Required co-enzymes were added to the above substrate solution; • 3. Kinases were added and mixed gently; • 4. The tested compound was dissolved in DMSO, and then added to the above kinase solution by using Acoustic technique (Echo550, nanoliter range) and incubated for 20 minutes; • 5. ^33P-ATP was added to the above reaction mixture to initiate the reaction; • 6. The mixture was incubated for 2 hours at room temperature; • 7. The activity of kinases was tested by filtration-combination; • 8. The data were processed in Excel and the control data were subtracted. A curve was drawn by the GraphPad Prism software to get the IC50 value.

c-Kit (T670I) = c-Kit (T670I) (Homo sapiens (Human), UniProt P10721, T670I); assay: 33P-ATP kinase assay, c-Kit (T670I); type: biochemical; conditions: 33P-ATP assay; ATP concentration 30 μM
Chain of c-Kit (T670I) (P10721 26-976 T670I): as the sequence (P10721 26-976 D816V) above, with T645I, V791D counted along it
Protocol: as §4

c-Kit [2] = biological target: T1, c-Kit; assay: 33P-ATP kinase assay, c-Kit; type: biochemical; conditions: 33P-ATP assay; ATP concentration 30 μM; 2 mM MnCl2 in buffer
Protocol: as §4

[3] = test system: chronic myeloid leukaemia cell K562; assay: cells; conditions: Homo sapiens, K562, 72 h, read-out: IC50 (nM) inhibition of K562 cell growth
c-Kit (V654A) = c-Kit (V654A) (Homo sapiens (Human), UniProt P10721, V654A); assay: 33P-ATP kinase assay, c-Kit (V654A); type: biochemical; conditions: 33P-ATP assay; ATP concentration 30 μM; 2 mM MnCl2 in buffer
Chain of c-Kit (V654A) (P10721 26-976 V654A): as the sequence (P10721 26-976 D816V) above, with V629A, V791D counted along it
Protocol: as §4

c-Kit (D816H) = c-Kit (D816H) (Homo sapiens (Human), UniProt P10721, D816H); assay: 33P-ATP kinase assay, c-Kit (D816H); type: biochemical; conditions: 33P-ATP assay; ATP concentration 30 μM
Chain of c-Kit (D816H) (P10721 26-976 D816H): as the sequence (P10721 26-976 D816V) above, with V791H counted along it
Protocol: as §4

c-Kit (V560G) = c-Kit (V560G) (Homo sapiens (Human), UniProt P10721, V560G); assay: 33P-ATP kinase assay, c-Kit (V560G); type: biochemical; conditions: 33P-ATP assay; ATP concentration 30 μM
Chain of c-Kit (V560G) (P10721 26-976 V560G): as the sequence (P10721 26-976 D816V) above, with V535G, V791D counted along it
Protocol: as §4

[4] = test system: chronic myeloid leukaemia cell K562; assay: MTS growth inhibition assay, K562 cell strain; type: cell-based; conditions: Homo sapiens, MTS/PMS, 72 hours
Protocol: (§5) This invention also tested the inhibitory activity of the compounds of this invention on the growth of chronic myeloid leukaemia cell K562, KU812, and MEG-01, acute myeloid leukaemia cell Kasumi-1 and acute lymphatic leukemia cell Sup-B15.
(§6) 1. Preparation of Assay Solution
(§7) (1) Preparation of PMS solution: PMS was dissolved in DPBS to give a concentration of […]. The solution was then filtered into a sterile and lightproof container;
(§8) (2) Preparation of MTS solution: a) 21 ml DPBS was added to a lightproof container; b) 42 mg MTS powder was weighted and then added to DPBS; c) the above were mixed on a electromagnetic stirrer until the powder was dissolved; d) the pH value was measured. […] If the pH was higher than 6.5, it should be adjust to 6.5 with 1 N HCl; e) the solution was filtered into a sterile and lightproof container; (3) Preparation of MTS/PMS mixture: a) 2 ml of the MTS solution was transferred to a tube; b) 100 μL of the PMS solution was added to the tube; c) the tube was vortexed gently to mix the solution thoroughly. 2. […] 3. […] 4.

[5] = test system: chronic myeloid leukaemia cell MEG-01; assay: MTS growth inhibition assay, MEG-01 cell strain; type: cell-based; conditions: MTS/PMS, 72 hours
Protocol: as §5, §6, §7, §8

[6] = test system: acute myeloid leukaemia cell Kasumi-1; assay: MTS growth inhibition assay, Kasumi-1 cell strain; type: cell-based; conditions: Homo sapiens, MTS/PMS, 72 hours
Protocol: as §5, §6, §7, §8

[7] = test system: acute lymphatic leukemia cell Sup-B15; assay: MTS growth inhibition assay, Sup-B15 cell strain; type: cell-based; conditions: MTS/PMS, 72 hours
Protocol: as §5, §6, §7, §8

[8] = test system: chronic myeloid leukaemia cell KU812; assay: MTS growth inhibition assay, KU812 cell strain; type: cell-based; conditions: MTS/PMS, 72 hours
Protocol: as §5, §6, §7, §8

[9] = test system: chronic myeloid leukaemia cell K562; conditions: read-out: IC50 (nM) inhibition of K562 cell growth; CellTiter-Glo; 72 hours

T1 sequence (P10721 26-976): as the sequence (P10721 26-976 D816V) above, with V791D counted along it

| Compound | IC50 (c-Kit [1]) | IC50 (PDGFR (Homo sapiens)) | further results |
| --- | --- | --- | --- |
| Cc1ccc(NC(=O)c2ccc3c(c2)CCC3N2CCN(C)CC2)cc1Nc1nccc(-c2cccnc2)n1 (stereo not shown) [EXAMPLE 1, 1-(4-methylpiperazin-1-yl)-N-(4-methyl-3-[(4-pyridin-3-ylpyrimidin-2-yl)amino]phenyl)-2,3-dihydro-1H-inden-5-carboxamide] | 22 nM | 17 nM |  |
| Cc1ccc(NC(=O)c2ccc3c(c2)CCC3N2CCN(C(=O)OC(C)(C)C)CC2)cc1Nc1nccc(-c2cccnc2)n1 (stereo not shown) [EXAMPLE 2, tert-butyl 4-{5-[({4-methyl-3-[(4-pyridin-3-ylpyrimidin-2-yl)amino]phenyl}amino)carbonyl)-2,3-dihydro-1-H-inden-1-yl}piperazin-1-carboxylate] | 1190 nM | 233 nM |  |
| Cc1ccc(NC(=O)c2ccc3c(c2)CCC3N2CCNCC2)cc1Nc1nccc(-c2cccnc2)n1 (stereo not shown) [EXAMPLE 3, N-(4-methyl-3-[(4-pyridin-3-ylpyrimidin-2-yl)amino]phenyl)-1-piperazin-1-yl-2,3-dihydro-1H-indene-5-carboxamide] | 16 nM |  |  |
| Cc1ccc(NC(=O)c2ccc3c(c2)CCC3N2CCN(C(C)C)CC2)cc1Nc1nccc(-c2cccnc2)n1 (stereo not shown) [EXAMPLE 5, 1-(4-isopropylpiperazin-1-yl)-N-(4-methyl-3-[(4-pyridin-3-ylpyrimidin-2-yl)amino]phenyl)-2,3-dihydro-1H-indene-5-carboxamide] | 23 nM | 18 nM |  |
| Cc1ccc(NC(=O)c2ccc3c(c2)CCC3N2CCN(CCO)CC2)cc1Nc1nccc(-c2cccnc2)n1 (stereo not shown) [EXAMPLE 6] | 32 nM | 20 nM |  |
| CC(=O)N1CCN(C2CCc3cc(C(=O)Nc4ccc(C)c(Nc5nccc(-c6cccnc6)n5)c4)ccc32)CC1 (stereo not shown) [EXAMPLE 7, 1-[4-acetylpiperazin-1-yl)-N-(4-methyl-3-[(4-pyridin-3-ylpyrimidin-2-yl)amino]phenyl)-2,3-dihydro-1H-indene-5-carboxamide] | 529 nM | 41 nM |  |
| Cc1ccc(NC(=O)c2ccc3c(c2)CCC3N2CCN(C)CC2)cc1Nc1nccc(-c2cncnc2)n1 (stereo not shown) [EXAMPLE 8, N-[3-(4,5′-bipyrimidine-2-ylamino)-4-methylphenyl]-1-(4-methylpiperazin-1-yl)-2,3-dihydro-1H-indene-5-carboxamide] | 32 nM | 22 nM |  |
| Cc1ccc(NC(=O)c2ccc3c(c2)CCC3N2CC[C@H](N(C)C)C2)cc1Nc1nccc(-c2cccnc2)n1 (stereo partly drawn) [EXAMPLE 9, 1-[(3S)-3-(dimethylamino)pyrrolidin-1-yl]-N-{4-methyl-3-[(4-pyridin-3-ylpyrimidin-2-yl)amino]phenyl}-2,3-dihydro-1H-indene-5-carboxamide] | 51 nM | 15 nM |  |
| Cc1ccc(NC(=O)c2ccc3c(c2)CC[C@@H]3N2CCN(C)CC2)cc1Nc1nccc(-c2cccnc2)n1 [EXAMPLE 11, (1S)-1-(4-methylpiperazin-1-yl)-N-(4-methyl-3-[(4-pyridin-3-ylpyrimidin-2-yl)amino]phenyl)-2,3-dihydro-1H-indene-5-carboxamide] | 8.5 nM | 9.6 nM | IC50 (c-Kit (D816V)): 1740 nM; IC50 (c-Kit (T670I)): 2060 nM; IC50 (c-Kit [2]): 132 nM; IC50 [3]: 3.2 nM; IC50 (c-Kit (V654A)): 969 nM; IC50 (c-Kit (D816H)): 83.6 nM; IC50 (c-Kit (V560G)): 1.77 nM |
| Cc1ccc(NC(=O)c2ccc3c(c2)CC[C@H]3N2CCN(C)CC2)cc1Nc1nccc(-c2cccnc2)n1 [EXAMPLE 12, (1R)-1-(4-methylpiperazin-1-yl)-N-(4-methyl-3-[(4-pyridin-3-ylpyrimidin-2-yl)amino]phenyl)-2,3-dihydro-1H-indene-5-carboxamide] | 2250 nM | 53 nM | IC50 [3]: 208 nM |
| Cc1ccc(NC(=O)c2ccc3c(c2)CC[C@@H]3N2CCN(C)CC2)cc1Nc1nccc(-c2cncnc2)n1 [EXAMPLE 13, (1S)—N-[3-(4,5′-bipyrimidin-2-ylamino)-4-methylphenyl]-1-(4-methylpiperazin-1-yl)-2,3-dihydro-1H-indene-5-carboxamide] | 15 nM | 13 nM | IC50 [3]: 2.2 nM |
| Cc1ccc(NC(=O)c2ccc3c(c2)CC[C@H]3N2CCN(C)CC2)cc1Nc1nccc(-c2cncnc2)n1 [EXAMPLE 14, (1R)—N-[3-(4,5′-bipyrimidin-2-ylamino)-4-methylphenyl]-1-(4-methylpiperazin-1-yl)-2,3-dihydro-1H-indene-5-carboxamide] | 2260 nM | 65 nM |  |
| Cc1ccc(NC(=O)c2ccc3c(c2)CC[C@@H]3N2CCN(C)CC2)cc1Nc1nccc(-c2ccncc2)n1 [EXAMPLE 15, (1S)-1-(4-methylpiperazin-1-yl)-N-(4-methyl-3-[(4-pyridin-4-ylpyrimidin-2-yl)amino]phenyl)-2,3-dihydro-1H-indene-5-carboxamide] | 526 nM | 24 nM | IC50 [3]: 35 nM |
| Cc1ccc(NC(=O)c2ccc3c(c2)CC[C@@H]3N2CCN(C)CC2)cc1Nc1nccc(-c2cccnc2)n1 [EXAMPLE 16, (1S)-1-(4-methylpiperazin-1-yl)-N-(4-methyl-3-[(4-pyridin-3-ylpyrimidin-2-yl)amino]phenyl)-2,3-dihydro-1H-indene-5-carboxamide sulfate] |  |  | IC50 [4]: 0.25 nM; IC50 ([5]; Homo sapiens, MEG-01): 0.085 nM; IC50 [6]: 11.2 nM; IC50 ([7]; Homo sapiens, SUP-B15): 39.6 nM; IC50 ([8]; Homo sapiens, KU812): 0.024 nM |
| Cc1cn(-c2cc(NC(=O)c3ccc(C)c(Nc4nccc(-c5cccnc5)n4)c3)cc(C(F)(F)F)c2)cn1 [Nilotinib] |  |  | IC50 [4]: 6.26 nM; IC50 ([5]; Homo sapiens, MEG-01): 1.65 nM; IC50 [6]: 22.3 nM; IC50 ([7]; Homo sapiens, SUP-B15): 135 nM; IC50 ([8]; Homo sapiens, KU812): 2.1 nM |
| CN[C@@H]1C[C@H]2O[C@@](C)([C@@H]1OC)n1c3ccccc3c3c4c(c5c6ccccc6n2c5c31)C(=O)NC4 [Staurosporine] |  |  | IC50 [5]: 8.97 nM; IC50 [7]: 6.84 nM; IC50 [8]: 9.57 nM; IC50 [9]: 139 nM |

From patent US8703771B2, “Preparation method of dihydroindene amide compounds, their pharmaceutical compositions containing compounds thereof and use as protein kinases inhibitor” (Harbin Gloria Pharmaceuticals Co., Ltd., priority 2008, dated 2014)
